Like-named read-outs stand apart in the source and are kept apart here.
Legend:
[1] = tested on: Line MCF7-ADRr (adriamycin-resistant); experiment: cytotoxicity on an adriamycin-resistant cell line (Line MCF7-ADRr); assay type: cell-based; conditions: read-out: IC50 Line MCF7-ADRr
[2] = tested on: Line MDA (normal ovary cell line); experiment: cytotoxicity on a normal ovary cell line (Line MDA); assay type: cell-based; conditions: read-out: IC50 Line MDA
[3] = Line MDA, normal ovary cell line

| Compound | IC50 [1] | IC50 [2] | IC50 [2, 3] | IC50 ([1]; Line MCF7-ADRr, adriamycin-resistant) |
| --- | --- | --- | --- | --- |
| CC(=O)O[C@H]1C(=O)[C@@]2(C)[C@H]([C@H](OC(=O)c3ccccc3)[C@]3(O)C[C@H](OC(=O)[C@H](O)[C@@H](NC(=O)c4ccccc4)c4ccccc4)C(C)=C1C3(C)C)[C@]1(OC(C)=O)CO[C@@H]1C[C@@H]2O [Paclitaxel, reference compound] | 2600 nM | 2.4 nM |  |  |
| CC(=O)O[C@@]12CO[C@@H]1CC1NN=C3C(=O)C4=C(C)[C@@H](OC(=O)[C@H](O)[C@@H](NC(=O)c5ccccc5)c5ccccc5)C[C@@](O)([C@@H](OC(=O)c5ccccc5)[C@H]2[C@]31C)C4(C)C (stereo partly drawn) [Compound of example 2, 10-deacetyl-10-dehydro-Paclitaxel pyrazoline] |  | 3.1 nM |  |  |
| 13-(N-Boc-phenylisoserinyl)-10-dehydro-10-deacetyl-baccatine III pyrazoline [Compound of example 4] | 264 nM |  | 1.2 nM |  |
| CC(=O)O[C@@]12CO[C@@H]1CC1NN=C3C(=O)C4=C(C)[C@@H](OC(=O)[C@H](O)[C@@H](NC(=O)OC(C)(C)C)c5ccccc5)[C@@H]5OC(=O)O[C@]5([C@@H](OC(=O)c5ccccc5)[C@H]2[C@]31C)C4(C)C (stereo partly drawn) [Compound of example 6, 13-(N-Boc-phenyl-isoserinyl)-1,14-carbonate10-dehydro-10-deacetyl-baccatine III pyrazoline] |  | 2.1 nM |  |  |
| CC(=O)O[C@@]12CO[C@@H]1CC1NN=C3C(=O)C4=C(C)[C@@H](OC(=O)[C@H](O)[C@H](CC(C)C)NC(=O)OC(C)(C)C)C[C@@](O)([C@@H](OC(=O)c5ccccc5)[C@H]2[C@]31C)C4(C)C (stereo partly drawn) [Compound of example 5, 13-(N-Boc-3'-isobutyl)-isoserinyl-10-dehydrobaccatine III pyrazoline] |  | 1.4 nM |  |  |
| CC(=O)O[C@@]12CO[C@@H]1C[C@H](O)[C@@]1(C)C(=O)[C@H](O)C3=C(C)[C@@H](OC(=O)[C@H](O)[C@@H](NC(=O)OC(C)(C)C)c4ccccc4)C[C@@](O)([C@@H](OC(=O)c4ccccc4)[C@H]21)C3(C)C [Docetaxel, reference compound] |  |  | 0.8 nM | 700 nM |

Source: US5955489A, “Taxane derivatives, the preparation thereof and formulations containing them” (Indea S.p.A., priority 1996, dated 1999)
